The values that follow come from patent US9351955B2, “Compounds and pharmaceutical compositions thereof for the treatment of cystic fibrosis” (Galapagos NV, priority 2013, dated 2016).

The target of one series is T1, CFTR-S549N (Homo sapiens, UniProt P13569, S549N).
T1 construct: expressed in transfected cells
Kind of series: YFP-halide influx assay for the CFTR-S549N. Format: cell-based. The following applies: CFTR-S549N mutant; read-out: EC50 measured by YFP-halide influx assay for the CFTR-S549N. In short, it runs like this: (§1)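 HEK293 cells reverse-transfected with mutant CFTR and halide-sensitive YFP H148Q/I152L/F47L reporter, then expressed 24 h at 37 °C, 5% CO2. Fluorescence quenching recorded for 7 s after I^− injection; response expressed as 1−F/F0, with EC50 derived from response versus compound concentration.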

In another series the target is T2, CYP3A4 (Homo sapiens, UniProt P08684).
T2 construct: tissue BD Gentest; host or cells: human liver microsomes
T2 sequence (P08684 whole entry): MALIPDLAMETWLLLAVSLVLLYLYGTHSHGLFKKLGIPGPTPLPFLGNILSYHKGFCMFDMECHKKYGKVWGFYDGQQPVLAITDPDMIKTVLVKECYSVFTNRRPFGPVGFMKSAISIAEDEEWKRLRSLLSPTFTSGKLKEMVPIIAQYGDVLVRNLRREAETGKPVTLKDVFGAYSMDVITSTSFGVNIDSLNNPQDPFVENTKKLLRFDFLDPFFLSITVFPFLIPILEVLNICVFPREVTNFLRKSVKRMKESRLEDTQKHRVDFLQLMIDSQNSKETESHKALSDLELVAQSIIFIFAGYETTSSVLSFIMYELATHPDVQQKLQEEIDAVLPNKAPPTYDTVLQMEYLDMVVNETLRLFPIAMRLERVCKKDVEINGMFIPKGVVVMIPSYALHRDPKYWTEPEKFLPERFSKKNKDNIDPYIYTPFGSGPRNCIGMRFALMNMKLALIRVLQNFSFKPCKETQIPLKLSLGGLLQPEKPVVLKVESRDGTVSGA
The series is described as follows: Time dependent inhibition (TDI) of CYP3A4 in human liver microsomes. Format: in vitro ADME. The method, then:
8.7.11. Time Dependent Inhibition (TDI) 8.7.11.1. Protocol
The mechanism-based inhibition assay for CYP3A4 is carried out to evaluate the presence of any TDI.
A 5 mM stock solution of test compound is prepared in methanol. This stock is serially diluted 1:3 in methanol and then added in duplicates to mixture containing 50 mM potassium phosphate buffer pH 7.4 and human liver microsomes (BD Gentest). Final reaction conditions are as follows: seven test compound concentrations (0.14-100 μM), prepared in duplicates and 2% methanol.
A summary of the specific conditions is shown below.
After finishing the pre-incubation, the reaction is finally started by adding the co-factor mix to the first replica and probe substrate to second replica (opposite from pre-incubation).
After incubation at 37° C., the reaction (aliquot of 50 μL) is terminated with 150 μL acetonitrile:methanol (2:1) solution with internal standard (warfarin). Samples are centrifuged and the supernatant fractions analyzed by LC-MS/MS.
The instrument responses (ratio of test compound and internal standard peak areas) are referenced to those for solvent controls (assumed as 100%) in order to determine the percentage reduction in probe metabolism. […]
On the technique in general: Liver microsomes are vesicles of endoplasmic reticulum, rich in cytochrome P450 enzymes.

The target in the next series is T3, CFTR-G1349D (Homo sapiens, UniProt P13569, G1349D).
T3 construct: expressed in transfected cells
T3 sequence (P13569 whole entry G1349D): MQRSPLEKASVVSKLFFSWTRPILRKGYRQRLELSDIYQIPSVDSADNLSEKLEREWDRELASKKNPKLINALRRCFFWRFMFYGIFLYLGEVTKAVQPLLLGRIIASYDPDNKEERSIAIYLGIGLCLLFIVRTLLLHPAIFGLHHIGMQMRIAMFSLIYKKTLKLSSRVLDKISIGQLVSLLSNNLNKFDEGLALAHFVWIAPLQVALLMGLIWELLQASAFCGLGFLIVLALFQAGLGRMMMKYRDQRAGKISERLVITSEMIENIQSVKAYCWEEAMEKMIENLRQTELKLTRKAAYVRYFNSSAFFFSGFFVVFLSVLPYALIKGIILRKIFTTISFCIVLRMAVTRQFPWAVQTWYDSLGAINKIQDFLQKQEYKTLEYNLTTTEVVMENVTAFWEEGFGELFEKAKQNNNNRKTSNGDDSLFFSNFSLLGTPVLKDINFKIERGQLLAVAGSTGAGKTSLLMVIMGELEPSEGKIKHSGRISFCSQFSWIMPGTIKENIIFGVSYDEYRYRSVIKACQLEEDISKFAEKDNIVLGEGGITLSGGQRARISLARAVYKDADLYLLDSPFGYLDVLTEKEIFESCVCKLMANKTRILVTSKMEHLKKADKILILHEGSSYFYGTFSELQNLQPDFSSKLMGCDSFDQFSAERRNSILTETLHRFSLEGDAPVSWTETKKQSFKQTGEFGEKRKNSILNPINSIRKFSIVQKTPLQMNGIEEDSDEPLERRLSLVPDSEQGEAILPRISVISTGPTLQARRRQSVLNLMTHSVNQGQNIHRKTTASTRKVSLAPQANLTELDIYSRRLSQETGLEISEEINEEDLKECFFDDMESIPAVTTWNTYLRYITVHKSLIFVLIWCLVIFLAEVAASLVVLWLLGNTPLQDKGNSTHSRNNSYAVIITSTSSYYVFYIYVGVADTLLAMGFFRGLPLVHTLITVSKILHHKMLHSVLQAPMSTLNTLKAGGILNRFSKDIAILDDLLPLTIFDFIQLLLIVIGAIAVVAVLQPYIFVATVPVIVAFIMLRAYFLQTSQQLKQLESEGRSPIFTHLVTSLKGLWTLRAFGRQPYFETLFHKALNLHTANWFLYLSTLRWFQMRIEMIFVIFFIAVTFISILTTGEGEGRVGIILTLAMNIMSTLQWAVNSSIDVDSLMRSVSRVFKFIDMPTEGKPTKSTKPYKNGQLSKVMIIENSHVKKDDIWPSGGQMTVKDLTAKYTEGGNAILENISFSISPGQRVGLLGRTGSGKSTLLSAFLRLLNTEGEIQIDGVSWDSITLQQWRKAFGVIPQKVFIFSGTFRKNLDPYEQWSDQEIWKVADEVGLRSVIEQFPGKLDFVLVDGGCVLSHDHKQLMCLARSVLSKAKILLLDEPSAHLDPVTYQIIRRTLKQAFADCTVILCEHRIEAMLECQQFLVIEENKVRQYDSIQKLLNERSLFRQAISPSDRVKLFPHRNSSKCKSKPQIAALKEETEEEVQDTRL
The series is described as follows: YFP-halide influx assay for the CFTR-G1349D. Format: cell-based. Conditions: CFTR-G1349D mutant; read-out: EC50 measured by YFP-halide influx assay for the CFTR-G1349D. The method, boiled down: as §1

A short description of a further series: Lung distribution study. Type of series: in vivo, Sprague-Dawley rats. The following applies: male, Sprague-Dawley, rat, plasma, oral, 10 mg/kg, exposure values. The method, then:
Sprague-Dawley rats (male, 5-6 weeks old) are obtained from Janvier (France). Rats are acclimatized for at least 5 days before treatment and are kept on a 12 h light/dark cycle. Temperature is maintained at approximately 22° C., and food and water are provided ad libitum. Two days before administration of the test compounds, rats may undergo surgery to place a catheter in the jugular vein under isoflurane anesthesia. After the surgery, rats are housed individually. Rats are deprived of food for at least 16 h before oral dosing and 6 h after. Water is provided ad libitum.
8.7.3. Lung Distribution Studies
Compounds are formulated in 0.5% methylcellulose and EtOH/PEG 200/Methylcellulose 0.5% (10/25/65 v/v/v) by the oral route. Test compounds are orally dosed as a single esophageal gavage at 10 mg/kg under a dosing volume of 5 mL/kg. Each group consists of 12 rats. At each time point, typically 1, 3, 6 and 24 h, animals are euthanized and blood and lung samples are collected. Whole blood samples are centrifuged at 1500 g for 10 min and the resulting plasma samples, along with the lung samples, are stored at −20° C. pending analysis.
8.7.4. Quantification of Compound Levels in Plasma and Lung Samples
Lung samples are milled in the presence of ceramic beads and proteins present in plasma and lung samples are precipitated with an organic solvent. Concentrations of each test compound are determined by an LC-MS/MS method in which the mass spectrometer is operated in positive or negative electrospray mode.
For each animal, the lung-to-plasma ratio is determined as the ratio between compound concentration in lung and in plasma. At each sampling time point, mean, standard error of the mean (sem) and coefficient of variation (CV %) are calculated using data from three animals.

Structures are written as SMILES.

T1 sequence (P13569 whole entry S549N): as the sequence (P13569 whole entry G1349D) above, with S549N, D1349G counted along it

Consider `CC1(C)Cc2c(sc(NC(=O)c3ccn[nH]3)c2C(N)=O)C(C)(C)O1` [Compound 2, N-(3-carbamoyl-5,5,7,7-tetramethyl-5,7-dihydro-4H-thieno[2,3-c]pyran-2-yl)-1H-pyrazole-5-carboxamide], for which the EC50 (usually the concentration giving half of the maximal effect) on CFTR-S549N was 211 nM; at CFTR-G1349D it was 63.3 nM. For the same compound, the “time-dependent inhibition of CYP3A4” value at CYP3A4 (IC50 without vs with preincubation) was “no evidence for time-dependent inhibition of CYP3A4”. At CYP3A4 (both without and with preincubation, Midazolam or testosterone as probe substrate, human liver microsomes), the IC50 (as a rule, the concentration needed to halve the response being measured) is > 100000 nM.

In the case of `CC1(C)Cc2c(sc(NC(=O)C3(CO)CC3)c2C(N)=O)C(C)(C)O1` [Compound 9, 2-(1-(hydroxymethyl)cyclopropanecarboxamido)-5,5,7,7-tetramethyl-5,7-dihydro-4H-thieno[2,3-c]pyran-3-carboxamide], the EC50 stood at 902 nM at CFTR-S549N and 578 nM on CFTR-G1349D. Also, the AUC(0-t) (in general, exposure summed from dosing to a finite time, without extrapolation to infinity) in the series “Lung distribution study” stood at 38900 ng·h/mL.
